Measurements as given in paper PMC11440508, “Dually Labeled Neurotensin NTS1R Ligands for Probing Radiochemical and Fluorescence-Based Binding Assays” (Journal of Medicinal Chemistry, 2024).
Several values for one entry are separate records, joined by “and”; a condition that tells them apart may be missing. Equal entries are not always repeated.

How the values were obtained:
[1] = Recovery from human plasma/PBS 1:2 v/v; type: in vitro ADME; design: recovery compd. (%): dose or concentration left out as unconfirmed; details: for recovery compd. (%): human plasma/PBS 1:2 v/v
Protocol: The proteolytic stabilities of 13 and 18 were investigated in human blood plasma/PBS (136.9 mM NaCl, 2.68 mM KCl, 5.62 mM Na2HPO4, 1.09 mM NaH2PO4, and 1.47 mM KH2PO4, pH 7.4) 1:2 v/v according to a described procedure[38] with the following modifications: 5 mM stock solutions in EtOH/10 mM aqueous HCl 1:1 v/v were used for the addition of the peptides to plasma/PBS 1:2 v/v. As the RP-HPLC purity of 1-methyl-D-Trp, used as internal standard (IS), was <95%, the compound was purified by preparative HPLC to give a purity of >99%. […] Samples were analyzed using the same RP-HPLC system and conditions as described under Analytical HPLC with the following gradient: 0–6 min: acetonitrile/0.04% aqueous TFA 10:90–21:79, 6–12 min: 21:79–40:60, 12–13 min: 40:60–95:5, 13–16 min: 95:5 (isocratic). Data analysis was based on UV detection at 220 nm. Reference samples, representing 100% recovery, were prepared in quadruplicate. Recovery ratios were obtained by dividing the recovery of the peptide by the recovery of IS for each individual sample (n = 4). The obtained recoveries and the recovery ratios are summarized in Table S2, Supporting Information.

[2] = target: NTS1R (Homo sapiens, UniProt P30989); assay: High-content imaging (HCI) saturation binding, adherent CHO-hNTS1R cells; details: 23 °C
Protocol: CHO-hNTS1R or HT-29 cells were seeded one day prior to the experiment into the inner 60 wells of a black clear-bottom 96-well plate (Greiner 655090, Greiner Bio-One) at a concentration of 25,000 cells/well and 35,000 cells/well, respectively. On the day of the assay, the medium was removed by suction and the cells were washed with DPBS1 (50 μL). After this step, DPBS1 (180 or 200 μL) containing the nuclear dye Hoechst H33342 (2 μg/mL) was added. This solution also contained the fluorescent ligand (kinetic studies, competition binding experiments), or the fluorescent ligand was added separately (saturation binding experiments). […] Shortly before subjecting the plate to the plate reader for image acquisition, the liquid was removed by suction and DPBS1 (100 μL) was added. Images were acquired using an IX Micro plate reader (Molecular Devices, Sunnyvale, CA) using a 20× Plan Fluor ELWD objective, a xenon lamp light source and DAPI and TRITC excitation/emission filter cubes for imaging nuclear and fluorescent ligand staining, respectively. […] Two sites/well were measured throughout. Images were analyzed by granularity analysis (2–3 μm diameter granules; MetaXpress 5.3, Molecular Devices, San Diego, CA) and the integrated intensity (pixel intensity × granule area) per cell was used as the raw measurement of fluorescent ligand binding. […]

NTS1R, sequence (P30989 whole entry): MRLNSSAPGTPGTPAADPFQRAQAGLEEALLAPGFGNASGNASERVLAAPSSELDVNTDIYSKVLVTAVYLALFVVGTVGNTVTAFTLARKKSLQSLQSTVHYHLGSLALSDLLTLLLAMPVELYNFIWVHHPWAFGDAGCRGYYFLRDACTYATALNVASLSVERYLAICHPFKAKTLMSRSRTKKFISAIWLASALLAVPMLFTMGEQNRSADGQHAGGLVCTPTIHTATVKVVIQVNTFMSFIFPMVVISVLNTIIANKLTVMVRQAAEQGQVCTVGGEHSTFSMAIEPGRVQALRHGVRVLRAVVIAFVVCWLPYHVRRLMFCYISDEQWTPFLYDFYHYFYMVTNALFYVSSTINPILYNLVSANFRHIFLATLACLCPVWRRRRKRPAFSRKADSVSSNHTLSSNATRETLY

SMILES | recovery compd. (%) ([1]; individual experiments) | Kd [2] [nM] | mean recovery ratio ± SEM ([1]; four independent experiments) | ratio of peptide recovery over recovery of internal standard ([1]; individual experiments, internal standard 1-methyl-D-tryptophan)
CCC(=O)NCCCCNC(=O)N=C(N)NCCC[C@H](NC(=O)[C@@H]1CCCN1C(=O)[C@@H](NC(=O)CCc1cn(CCCNC(=O)c2ccc(-c3c4ccc(=[N+](C)C)cc-4oc4cc(N(C)C)ccc34)c(C(=O)[O-])c2)nn1)C1CCNCC1)C(=O)N[C@@H](CCCNC(=N)N)C(=O)N1CCC[C@H]1C(=O)N[C@@H](Cc1ccc(O)cc1)C(=O)N[C@H](C(=O)N[C@@H](CC(C)C)C(=O)O)[C@@H](C)CC [Compound 13, N^α-(3-(1-N-((1-Carboxylato-2-(6-(dimethylamino)-3-(dimethyliminio)-3H-xanthen-9-yl)phen-5-yl)1-oxomethyl)aminoprop-3-yl-1H-1,2,3-triazol-4-yl)propanoyl)-2-(piperidin-4-yl)-Gly-Pro-N^ω-[(4-(N-propanoyl)aminobutyl)aminocarbonyl]Arg-Arg-Pro-Tyr-Ile-Leu Tris(hydrotrifluoroacetate)] | 75% and 102% and 104% | 1.1 ± 0.2 |  | 
CCC(=O)NCCCCNC(=O)NC(=N)NCCC[C@H](NC(=O)[C@@H]1CCCN1C(=O)[C@@H](NC(=O)CCc1cn(CCCNC(=O)CCC#Cc2ccc3c(c2)C(C)(C)C2=C4C=C5C6=[N+](CCC5OC4CCN23)c2ccc(S(=O)(=O)[O-])cc2C6(C)C)nn1)C1CCNCC1)C(=O)N[C@@H](CCCNC(=N)N)C(=O)N1CCC[C@H]1C(=O)N[C@H](C(=O)N[C@H](C(=O)N[C@@H](CC(C)C)C(=O)O)[C@@H](C)CC)C(C)(C)c1ccc(O)cc1 (stereo partly drawn) [Compound 18, N^α-(3-(N-(1-(8-Sulfonato-5,5,27,27-tetramethyl-16-oxa-20-aza-12-azoniaheptacyclo[15.11.0.03,15.04,12.06,11.020,28.021,26]octacosa-1(28),2,4(12),6(11),7,9,21(26),22,24-nonaen-24-yl)-5-oxopentyn-5-yl)-1-aminoprop-3-yl-1H-1,2,3-triazol-4-yl)propanoyl)-2-(piperidin-4-yl)-Gly-Pro-N^ω-[(4-(N-propanoyl)aminobutyl)aminocarbonyl]Arg-Arg-Pro-β,β-dimethyl-L-Tyr-Ile-Leu Tris(hydrotrifluoroacetate)] | 98% and 72% and 65% and 70% | 1.3 ± 0.3 | 0.99 ± 0.02 | 1.01 (2×) and 1.03 and 0.91
